No end group written: not given here. *: point of attachment. 5FAM = O=C1OC2(c3ccc(O)cc3Oc3cc(O)ccc32)c2ccc(C(=O)*)cc21
What was measured:
anti-EIAV IgG = test: Fluorescence polarization of probe peptides with purified IgG from field-infected horse (Lady); type: binding; conditions: for change in FP with purified antibodies from field-infected animal: Lady IgG
Procedure: Due to problems encountered with testing horse serum, the initial evaluation made use of purified IgG from a reference long-term, field-infected horse (Lady). Purified IgG from field infected horse serum (100 μg/ml) was incubated with the candidate probe peptides (2 nM) in PBS for 20 min. The results are shown in FIG. 1, wherein black bars indicate probe added to IgG and gray bars indicate probe in buffer alone. All peptides were the 5-carboxyfluorescein derivatives. […] The other peptides in the panel had only slight changes in polarization in the presence of Lady IgG.
(§1) Fluorescence Polarization (FP) Measurements. The fluorescein-labeled peptides were evaluated for their suitability as probes for FP using an FPM-1 Fluorescence Polarization Analyzer (Jolley Consulting and Research, Grayslake, Ill.) batch mode with the following settings: PMT gain 80, heater off, single read. Serum was diluted 1:100 or 1:50 into 2 mL of buffer in 12×75 mm borosilicate glass tubes (VWR). After reading the blank, fluorescently labeled peptide was added to a final concentration of 1-2 nM (100K-200K total intensity) and incubated for at least 15 minutes. The FP of the sample was measured and expressed as millipolarization units (mP). Some of the sera were very dark, presumably due to hemolysis. If such a serum sample had low lamp feedback (<0.63), a two-fold further dilution was tested. Polarization data was output to a computer running the FPM-1 data collection software, then converted to an ASCII text file and imported into the Quattro Pro spreadsheet program (Corel, Ottawa, Ontario) for data analysis and graphing.

[1] = tested on: serum antibodies to equine infectious anemia virus; test: Fluorescence polarization (FP) assay of fluorescein-labeled peptides with diluted horse serum; type: binding; conditions: for FP reactivity with experimentally infected serum: Pony 95 serum; for FP interaction with EIAV-positive sera: EIAV-positive sera incl. R51 FP-nonreactive samples; for FP signal of R51 with positive sera: approx. 2 nM peptide, 1:100 serum, 50 mM sodium phosphate pH 6.8, 20 min, 5CF vs 6CF label
Procedure: Several different buffer compositions and detergents were therefore tested for compatibility with horse serum. When horse serum was diluted 1:50 or 1:100 into 20-50 mM sodium phosphate without NaCl, this problem was virtually eliminated. […] Under the low-salt conditions, the polarization of peptide R51-5CF increased from 50 mP to over 200 mP with a 1:100 dilution of a strong positive EIAV antiserum from an experimental infection (Pony 95). Thus it was determined that the optimal buffer composition for the FP assay was 50 mM sodium phosphate, pH 6.8-7.0.
as §1
Because different fluorescein linkages can result in differences in sensitivity in the FP assay, R51 peptide was labeled with 6-carboxyfluorescein so the difference between the two labels could be ascertained. […] Peptides (approx. 2 nM) were incubated with a 1:100 dilution of serum in 50 mM sodium phosphate, pH 6.8, for 20 minutes. The results are shown in FIG. 2, in order of decreasing peptide length. In FIG. 2, black bars show the results for experimentally-infected (pony 95), hatched bars for field infected ([…]), gray bars for uninfected (Petite), and white bars for no serum added. […] As the R51-6CF probe was the most sensitive to the positive sera tested, 6-carboxyfluorescein is the preferred fluorophore. However, other fluorophores, such as rhodamine, BODIPY™ M, Texas Red™ and Lucifer yellow, could also be used. For a detailed listing of a variety of commercially available fluorophores, see Handbook of Fluorescent Probes and Research Chemicals, ed. Karen Larison, by Richard P. Haughland, Ph.D., 5th ed., 1992, published by Molecular Probes, Inc.

[2] = tested on: anti-EIAV antibodies in horse sera; test: Anti-fluorescein capture ELISA; type: binding; conditions: for ELISA reactivity: Pony 95 and Lady sera; for reactivity in the anti-fluorescein ELISA: general statement of Example 3; for ELISA reactivity with FP-nonreactive sera: sera 1:50, FP-nonreactors from Texas
Procedure: Anti-Fluorescein Capture ELISA. In order to measure antibody binding to test peptides without regard to their suitability for FP, an anti-fluorescein capture ELISA was used. To each well of an Immulon 2 HB 96-well plate (Dynex, Chantilly, Va.) was added 50 μL rabbit anti-fluorescein antibody (Molecular Probes), 3.5 μg/ml in 50 mM sodium bicarbonate, pH 9.6; the plates were sealed and incubated overnight. The wells were blocked with Blotto (5% nonfat dry milk, 5% normal bovine serum, 0.025% Tween 20 in PBS (PBST). The plates were then incubated with test horse sera, diluted 1:100 in Blotto, for 1 h at RT, washed as above, then incubated with anti-horse IgG(Fc)-HRP (United States Biochemical), diluted 1:10^5 in Blotto, for 1 h at RT and washed. The substrate, TM Blue Soluble reagent (200 μL/well; Intergen, Milford, Mass.) was added and incubated for 20 minutes with shaking, and the reaction stopped with the addition of 50 μL/well 1.0 N H2SO4 for 5 minutes with shaking. Absorbance at 450 nm was measured on a Dynex MR5000 microplate reader. Because each peptide caused a slightly different background absorbance, control wells containing no horse serum were included for each peptide tested.
Some of the sera from Missouri (4/10) could not be tested due to interference from a high level of hemolysis, resulting in low lamp feedback values. […] In order to confirm the serological status of FP-unreactive sera, they were tested in a western blot (data not shown) as well as in the antifluorescein-capture ELISA using the seven original peptides derived from the three major antigens mentioned above (FIG. 5). Sera (1:50 dilution) were tested for reactivity to four EIAV-derived, fluorescein-labeled peptides in an ELISA format as described in the methods. NHS, normal (uninfected) horse serum; Tx43 through Txll7, FP-nonreactive, Tx47 through pony 95, FP-reactive sera. Black bars, peptide R51F; hatched bars, R32; gray bars, pepl2; white bars, Sam50.

[3] = Behaviour of the R51 probe in solution (cyclization, dilution); type: physicochemical
Procedure: Because R51 contains two Cys residues that may form a loop in the native protein, the differences in reactivity were assessed between linear or cyclized peptide (cyclic by virtue of an intramolecular disulfide bond).

LETWKLVKTSGVTPLPISSEANTGL (Equine infectious anemia virus) [Peptide 12]
change in FP with purified antibodies from field-infected animal (anti-EIAV IgG): did not exhibit an increase in FP | FP reactivity with experimentally infected serum [1]: some reactivity | ELISA reactivity [2]: reacted very strongly | reactivity in the anti-fluorescein ELISA [2]: strong and broad reactivity | ELISA reactivity with FP-nonreactive sera [2]: bind only weakly

APLVAPPQGPIPMT (Equine infectious anemia virus) [Sam50A]
FP interaction with EIAV-positive sera [1]: none of these analogs displayed a measurable interaction

IGCIERTHVFCHTG (Equine infectious anemia virus) [R51]
sensitivity of cyclized vs linear peptide ([1]; cyclic by intramolecular disulfide bond, field isolates): more sensitive to field isolates than the linear form | ELISA reactivity with FP-nonreactive sera [2]: no measurable antibody | precipitation of probe ([3]; conditions that allow cyclization): prone to precipitation | stability of peptide ([3]; upon dilution): stable upon dilution

HPLPNAPLVAPPQGPIPMT (Equine infectious anemia virus) [Sam50H]
FP interaction with EIAV-positive sera [1]: none of these analogs displayed a measurable interaction

KERQQVEETFNLI (Equine infectious anemia virus) [R32]
change in FP with purified antibodies from field-infected animal (anti-EIAV IgG): did not exhibit an increase in FP | FP reactivity with experimentally infected serum [1]: some reactivity | ELISA reactivity [2]: reacted very strongly | reactivity in the anti-fluorescein ELISA [2]: strong and broad reactivity | ELISA reactivity with FP-nonreactive sera [2]: no measurable antibody

QQVEETFNLI (Equine infectious anemia virus) [R32QQ]
maximum FP ([1]; 1:100 dilution of pony 95, R32 length series, fluorescein-6-isothiocyanate label): > 200 mP | FP reactivity with experimentally infected serum [1]: most sensitive peptide

R51-5CF: R51 peptide labeled at the N-terminus with 5-carboxyfluorescein (5FAM-IGCIERTHVFCHTG; cysteine pairing not given here)
free-peptide polarization level (anti-EIAV IgG; probe 2 nM in PBS buffer alone, 5-carboxyfluorescein derivative): about 60 mP | FP in the presence of Lady IgG (anti-EIAV IgG; probe 2 nM, 60-100 μg/ml Lady IgG in PBS, 20 min): around 140 MP | FP signal of R51 with positive sera [1]: 220 mP | FP reactivity with field-infected horse serum ([1]; field infected horses (Lady)): sensitive to serum from field infected horses | polarization with strong positive EIAV antiserum ([1]; low-salt conditions, 1:100 dilution, experimental infection (Pony 95)): over 200 mP | polarization of peptide before serum ([1]; low-salt conditions, starting value): 50 mP

R51-6CF: R51 peptide (SEQ ID NO 1) labeled with 6-carboxyfluorescein (IGCIERTHVFCHTG; cysteine pairing not given here; also: 6-carboxyfluorescein label, position not given here)
polarization values of negative serum samples ([1]; 110 AGID-negative sera, 1:100 dilution): 73.6±3.0 mP | FP signal of R51 with positive sera [1]: > 300 mP | average mP value with field-infected sera ([1]; measurable sera of 153 field-infected animals, 1:100 dilution, ~2 nM peptide): 150±55 mP

ADDWDNRHPLPNAPLVAPPQGPIPMT (Equine infectious anemia virus) [Sam50]
FP interaction with EIAV-positive sera [1]: insensitive to EIAV-positive sera

Reference: patent US20020025512A1, “FLUORESCENCE POLARIZATION- BASED DIAGNOSTIC ASSAY FOR EQUINE INFECTIOUS ANEMIA VIRUS” (priority 1998, published 2002)
